Test [1] has as its system antibodies in sera from SARS patients (sera 1a, 1b, 2, 6, 37, 62, London, SARS-yellow, SARS-green). In kind it is binding, human. On the set-up: Binding of serum 6 to linear peptides of protein X1 of SARS-CoV Urbani / Binding of serum 37 to linear peptides of protein X1 of SARS-CoV Urbani / Binding of serum 6 to looped/cyclic peptide (PEPSCAN-ELISA) / Binding of serum 37 to looped/cyclic peptide (PEPSCAN-ELISA) / Binding of serum 37 to looped/cyclic peptides of protein X1 of SARS-CoV Urbani / Binding of serum 6 to linear peptides of protein X2 / Binding of serum 37 to linear peptides of protein X2 / Binding of serum 37 to looped/cyclic peptides of protein X2 of SARS-CoV Urbani / Binding of serum 6 to linear peptides of protein M of SARS-CoV Urbani / Binding of serum 37 to linear peptides of protein M of SARS-CoV Urbani / Binding of serum 6 to looped/cyclic peptides of protein M of SARS-CoV Urbani / Binding of serum 37 to looped/cyclic peptides of protein M of SARS-CoV Urbani / Binding of serum 6 to linear peptides of protein X3 of SARS-CoV Urbani / Binding of serum 37 to linear peptides of protein X3 of SARS-CoV Urbani / Binding of serum 37 to looped/cyclic peptides of protein X3 of SARS-CoV Urbani / Binding of serum 6 to linear peptides of protein X4 of SARS-CoV Urbani / Binding of serum 37 to linear peptides of protein X4 of SARS-CoV Urbani / Binding of serum 37 to looped/cyclic peptides of protein X4 of SARS-CoV Urbani / Binding of serum 6 to linear peptides of protein X5 of SARS-CoV Urbani / Binding of serum 37 to linear peptides of protein X5 of SARS-CoV Urbani / Binding of serum 37 to looped/cyclic peptides of protein X5 of SARS-CoV Urbani / Binding of serum 6 to linear peptides of protein N of SARS-CoV Urbani / Binding of serum 37 to linear peptides of protein N of SARS-CoV Urbani / Binding of serum 6 to linear peptide (PEPSCAN-ELISA) / Binding of serum 1a to looped/cyclic peptides of protein N of SARS-CoV Urbani / Binding of serum 1b to looped/cyclic peptides of protein N of SARS-CoV Urbani / Binding of serum 2 to looped/cyclic peptides of protein N of SARS-CoV Urbani / Binding of serum 6 to looped/cyclic peptides of protein N of SARS-CoV Urbani / Binding of serum 37 to looped/cyclic peptides of protein N of SARS-CoV Urbani / Binding of serum 62 to looped/cyclic peptides of protein N of SARS-CoV Urbani / Binding of serum London to looped/cyclic peptides of protein N of SARS-CoV Urbani / Binding of serum SARS-green to looped/cyclic peptides of protein N of SARS-CoV Urbani: unit not given here.

The test system of test [2] is control sera (pooled serum of ten healthy LUMC hospital workers; commercial negative donor pooled serum from the Dutch bloodbank). The format is binding, human. On the set-up: Binding of Control serum LUMC to linear peptides / Binding of Control serum Blood-bank to linear peptides / Binding of Control serum LUMC to looped peptides / Binding of Control Serum Blood-Bank to Looped peptides / Binding of Control serum LUMC to linear peptides of the protein M of SARS-CoV Urbani / Binding of Control serum Blood-bank to linear peptides of the protein M of SARS-CoV Urbani / Binding of Control serum LUMC to looped peptides of the protein M of SARS-CoV Urbani / Binding of Control Serum Blood-Bank to Looped peptides of the protein M of SARS-CoV Urbani: unit not given here.

Test [3] has as its system rabbit serum obtained by immunizing a rabbit with the SARS-CoV strain Frankfurt 1. In kind it is binding. More on the design: Binding of a rabbit serum to linear peptides / Binding of a rabbit serum to looped peptides / Rabbit serum linear peptides / Rabbit serum looped peptides / Binding of a rabbit serum to linear peptides of protein N of SARS-CoV Urbani (Rabbit serum linear peptides) / Binding of a rabbit serum to looped/cyclic peptides of protein N of SARS-CoV Urbani (Rabbit serum looped peptides): unit not given here.

On to FLAVFQSATKIIALN, for which, in test [1], the “Binding of serum 1a to linear peptides of protein X1 of SARS-CoV Urbani” value is given as 0.6, the “Binding of serum 1a to looped/cyclic peptide (PEPSCAN-ELISA)” value was 0.6, the “Binding of serum 1b to linear peptides of protein X1 of SARS-CoV Urbani” value is recorded as 0.4 and the “Binding of serum 1b to looped/cyclic peptide (PEPSCAN-ELISA)” value is reported as 0.4. Moreover, in test [1], the “Binding of serum 2 to linear peptides of protein X1 of SARS-CoV Urbani” value was 0.5, the “Binding of serum 2 to looped/cyclic peptide (PEPSCAN-ELISA)” value is given as 0.5, the “Binding of serum 6 to linear peptides of protein X1 of SARS-CoV Urbani” value came out at 0.4 and the “Binding of serum 6 to looped/cyclic peptide (PEPSCAN-ELISA)” value came out at 1.0. In test [1], the “Binding of serum 37 to linear peptides of protein X1 of SARS-CoV Urbani” value is listed as 0.6, the “Binding of serum 37 to looped/cyclic peptide (PEPSCAN-ELISA)” value was 0.5, the “Binding of serum 62 to linear peptides of protein X1 of SARS-CoV Urbani” value stood at 0.6 and the “Binding of serum 62 to looped/cyclic peptide (PEPSCAN-ELISA)” value came to 0.6. In test [1], the “Binding of serum London to linear peptides of protein X1 of SARS-CoV Urbani” value is on record as 0.2, the “Binding of serum London to looped/cyclic peptide (PEPSCAN-ELISA)” value stood at 1.4, the “Binding of serum SARS-green to linear peptides of protein X1 of SARS-CoV Urbani” value is 0.3 and the “Binding of serum SARS-green to looped/cyclic peptide (PEPSCAN-ELISA)” value is 0.3. Besides, in test [1], the “Binding of serum SARS-yellow to linear peptides of protein X1 of SARS-CoV Urbani” value is on record as 0.4 and the “Binding of serum SARS-yellow to looped/cyclic peptide (PEPSCAN-ELISA)” value stood at 0.4. Also, in test [2], the “Binding of Control Serum Blood-Bank to Looped peptides” value is 0.6, the “Binding of Control serum Blood-bank to linear peptides” value was determined as 0.6, the “Binding of Control serum LUMC to linear peptides” value is reported as 0.6 and the “Binding of Control serum LUMC to looped peptides” value is listed as 0.7. Also, in test [3], the “Binding of a rabbit serum to linear peptides” value came to 0.6 and the “Binding of a rabbit serum to looped peptides” value is 0.6.

On to FLAWIMLLQFAYSNR, for which, in test [1], the “Binding of serum 1a to linear peptides of protein M of SARS-CoV Urbani” value is on record as 0.7, the “Binding of serum 1a to looped/cyclic peptides of protein M of SARS-CoV Urbani” value was found to be 0.8, the “Binding of serum 1b to linear peptides of protein M of SARS-CoV Urbani” value was 0.6 and the “Binding of serum 1b to looped/cyclic peptides of protein M of SARS-CoV Urbani” value is given as 0.8. In test [1], the “Binding of serum 2 to linear peptides of protein M of SARS-CoV Urbani” value came out at 0.5, the “Binding of serum 2 to looped/cyclic peptides of protein M of SARS-CoV Urbani” value was 0.6, the “Binding of serum 6 to linear peptides of protein M of SARS-CoV Urbani” value is listed as 0.4 and the “Binding of serum 6 to looped/cyclic peptides of protein M of SARS-CoV Urbani” value came out at 0.9. Besides, in test [1], the “Binding of serum 37 to linear peptides of protein M of SARS-CoV Urbani” value is listed as 0.4, the “Binding of serum 37 to looped/cyclic peptides of protein M of SARS-CoV Urbani” value was 0.7, the “Binding of serum 62 to linear peptides of protein M of SARS-CoV Urbani” value stood at 0.4 and the “Binding of serum 62 to looped/cyclic peptides of protein M of SARS-CoV Urbani” value was 0.6. In addition, in test [1], the “Binding of serum London to linear peptides of protein M of SARS-CoV Urbani” value is on record as 0.4, the “Binding of serum London to looped/cyclic peptides of protein M of SARS-CoV Urbani” value came out at 0.7, the “Binding of serum SARS-green to linear peptides of protein M of SARS-CoV Urbani” value is reported as 0.5 and the “Binding of serum SARS-green to looped/cyclic peptides of protein M of SARS-CoV Urbani” value came out at 0.5. In test [1], the “Binding of serum SARS-yellow to linear peptides of protein M of SARS-CoV Urbani” value worked out at 0.2 and the “Binding of serum SARS-yellow to looped/cyclic peptides of protein M of SARS-CoV Urbani” value came to 0.7. Also, in test [2], the “Binding of Control Serum Blood-Bank to Looped peptides of the protein M of SARS-CoV Urbani” value is 0.8, the “Binding of Control serum Blood-bank to linear peptides of the protein M of SARS-CoV Urbani” value turned out to be 0.5, the “Binding of Control serum LUMC to linear peptides of the protein M of SARS-CoV Urbani” value is 0.5 and the “Binding of Control serum LUMC to looped peptides of the protein M of SARS-CoV Urbani” value is 0.7. For the same sequence, in test [3], the “Rabbit serum linear peptides” value was 0.3 and the “Rabbit serum looped peptides” value was 0.5.

FLFLAWIMLLQFAYS: in test [1], the “Binding of serum 1a to linear peptides of protein M of SARS-CoV Urbani” value was 0.7, the “Binding of serum 1a to looped/cyclic peptides of protein M of SARS-CoV Urbani” value is given as 0.8, the “Binding of serum 1b to linear peptides of protein M of SARS-CoV Urbani” value is listed as 0.6 and the “Binding of serum 1b to looped/cyclic peptides of protein M of SARS-CoV Urbani” value is 0.7. For the same sequence, in test [1], the “Binding of serum 2 to linear peptides of protein M of SARS-CoV Urbani” value is 0.4, the “Binding of serum 2 to looped/cyclic peptides of protein M of SARS-CoV Urbani” value worked out at 0.6, the “Binding of serum 6 to linear peptides of protein M of SARS-CoV Urbani” value came out at 0.4 and the “Binding of serum 6 to looped/cyclic peptides of protein M of SARS-CoV Urbani” value came out at 0.9. In test [1], the “Binding of serum 37 to linear peptides of protein M of SARS-CoV Urbani” value is 0.4, the “Binding of serum 37 to looped/cyclic peptides of protein M of SARS-CoV Urbani” value is given as 0.7, the “Binding of serum 62 to linear peptides of protein M of SARS-CoV Urbani” value was found to be 0.4 and the “Binding of serum 62 to looped/cyclic peptides of protein M of SARS-CoV Urbani” value is given as 0.8. Also, in test [1], the “Binding of serum London to linear peptides of protein M of SARS-CoV Urbani” value is reported as 0.3, the “Binding of serum London to looped/cyclic peptides of protein M of SARS-CoV Urbani” value was found to be 0.3, the “Binding of serum SARS-green to linear peptides of protein M of SARS-CoV Urbani” value worked out at 0.4 and the “Binding of serum SARS-green to looped/cyclic peptides of protein M of SARS-CoV Urbani” value amounted to 0.3. In test [1], the “Binding of serum SARS-yellow to linear peptides of protein M of SARS-CoV Urbani” value was 0.2 and the “Binding of serum SARS-yellow to looped/cyclic peptides of protein M of SARS-CoV Urbani” value is on record as 0.4. For the same sequence, in test [2], the “Binding of Control Serum Blood-Bank to Looped peptides of the protein M of SARS-CoV Urbani” value is 0.8, the “Binding of Control serum Blood-bank to linear peptides of the protein M of SARS-CoV Urbani” value is 0.5, the “Binding of Control serum LUMC to linear peptides of the protein M of SARS-CoV Urbani” value is 0.5 and the “Binding of Control serum LUMC to looped peptides of the protein M of SARS-CoV Urbani” value came out at 0.7. Besides, in test [3], the “Rabbit serum linear peptides” value is on record as 0.2 and the “Rabbit serum looped peptides” value was found to be 0.3.

With FLIVAALVFLILCFT, in test [1], the “Binding of serum 1a to linear peptides of protein X4 of SARS-CoV Urbani” value is reported as 0.6, the “Binding of serum 1a to looped/cyclic peptides of protein X4 of SARS-CoV Urbani” value amounted to 0.7, the “Binding of serum 1b to linear peptides of protein X4 of SARS-CoV Urbani” value was 0.5 and the “Binding of serum 1b to looped/cyclic peptides of protein X4 of SARS-CoV Urbani” value worked out at 0.4. In test [1], the “Binding of serum 2 to linear peptides of protein X4 of SARS-CoV Urbani” value came out at 0.4, the “Binding of serum 2 to looped/cyclic peptides of protein X4 of SARS-CoV Urbani” value worked out at 0.7, the “Binding of serum 6 to linear peptides of protein X4 of SARS-CoV Urbani” value was 0.5 and the “Binding of serum 6 to looped/cyclic peptides of protein X4 of SARS-CoV Urbani” value is 0.4. For the same sequence, in test [1], the “Binding of serum 37 to linear peptides of protein X4 of SARS-CoV Urbani” value turned out to be 0.7, the “Binding of serum 37 to looped/cyclic peptides of protein X4 of SARS-CoV Urbani” value amounted to 0.7, the “Binding of serum 62 to linear peptides of protein X4 of SARS-CoV Urbani” value amounted to 0.7 and the “Binding of serum 62 to looped/cyclic peptides of protein X4 of SARS-CoV Urbani” value was 0.6. Moreover, in test [1], the “Binding of serum London to linear peptides of protein X4 of SARS-CoV Urbani” value is listed as 0.6, the “Binding of serum London to looped/cyclic peptides of protein X4 of SARS-CoV Urbani” value was 0.3, the “Binding of serum SARS-green to linear peptides of protein X4 of SARS-CoV Urbani” value amounted to 0.5 and the “Binding of serum SARS-green to looped/cyclic peptides of protein X4 of SARS-CoV Urbani” value is on record as 0.5. Also, in test [1], the “Binding of serum SARS-yellow to linear peptides of protein X4 of SARS-CoV Urbani” value is given as 0.7 and the “Binding of serum SARS-yellow to looped/cyclic peptides of protein X4 of SARS-CoV Urbani” value was 0.5. Also, in test [2], the “Binding of Control Serum Blood-Bank to Looped peptides” value came to 0.7, the “Binding of Control serum Blood-bank to linear peptides” value turned out to be 0.4, the “Binding of Control serum LUMC to linear peptides” value came to 0.4 and the “Binding of Control serum LUMC to looped peptides” value amounted to 0.6. In addition, in test [3], the “Rabbit serum linear peptides” value stood at 0.4 and the “Rabbit serum looped peptides” value stood at 0.3.

These data come from patent publication US20070128217A1 (priority 2003, published 2007).
